The test deals with HSD17B13 (Homo sapiens (Human), UniProt Q7Z5P4). The experiment in a line: HSD17B13 enzymatic inhibition assay (150 nM or 50 nM HSD17B13). In kind it is biochemical. The following applies: 50 nM HSD17B13; read-out: Inhibition of 50 nM of HSD17B13 IC50.
Chain of HSD17B13 (Q7Z5P4 other isoform, or with tags, fused parts or gaps): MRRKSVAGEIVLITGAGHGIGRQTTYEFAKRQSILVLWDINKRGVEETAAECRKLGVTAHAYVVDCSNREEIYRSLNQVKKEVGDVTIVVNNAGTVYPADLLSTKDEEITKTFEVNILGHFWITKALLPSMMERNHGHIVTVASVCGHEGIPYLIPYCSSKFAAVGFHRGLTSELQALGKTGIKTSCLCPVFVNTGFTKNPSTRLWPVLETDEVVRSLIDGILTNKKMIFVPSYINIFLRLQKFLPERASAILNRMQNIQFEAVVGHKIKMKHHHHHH
With `Cc1ccc2c(c1)N(CCOCc1ccccc1)CCC2NC(=O)c1ccc(C(F)(F)F)[nH]c1=O` (stereo not shown) [Compound 316, N-(1-(2-(benzyloxy)ethyl)-7-methyl-1,2,3,4-tetrahydroquinolin-4-yl)-2-oxo-6-(trifluoromethyl)-1,2-dihydropyridine-3-carboxamide], the IC50 was 5960 nM.
To `CC(C)(C)OC(=O)N1Cc2ccccc2C(NC(=O)c2ccc(C(F)(F)F)[nH]c2=O)C1` (stereo not shown) [Compound 317, tert-butyl 4-(2-oxo-6-(trifluoromethyl)-1,2-dihydropyridine-3-carboxamido)-3,4-dihydroisoquinoline-2(1H)-carboxylate] belongs 4030 nM.
To `O=C(NC1c2ccncc2Oc2ccc(O)cc21)c1ccc(C(F)(F)F)[nH]c1=O` (stereo not shown) [Compound 318, N-(7-hydroxy-5H-chromeno[2,3-c]pyridin-5-yl)-2-oxo-6-(trifluoromethyl)-1,2-dihydropyridine-3-carboxamide] belongs 7250 nM; to `COc1ccc2c(c1)C(NC(=O)c1ccc(C(F)(F)F)[nH]c1=O)c1ccncc1O2` (stereo not shown) [Compound 319, N-(7-methoxy-5H-chromeno[2,3-c]pyridin-5-yl)-2-oxo-6-(trifluoromethyl)-1,2-dihydropyridine-3-carboxamide], 830 nM.
To `O=C(NC1c2ccncc2Oc2cc(O)ccc21)c1ccc(C(F)(F)F)[nH]c1=O` (stereo not shown) [Compound 320, N-(8-hydroxy-5H-chromeno[2,3-c]pyridin-5-yl)-2-oxo-6-(trifluoromethyl)-1,2-dihydropyridine-3-carboxamide] belongs 600 nM.
As to `COc1ccc2c(c1)Oc1cccnc1C2NC(=O)c1ccc(C(F)(F)F)[nH]c1=O` (stereo not shown) [Compound 322, N-(7-methoxy-10H-chromeno[3,2-b]pyridin-10-yl)-2-oxo-6-(trifluoromethyl)-1,2-dihydropyridine-3-carboxamide], the IC50 is 300 nM.
Take `Cc1cc2c(cn1)C(NC(=O)c1ccc(C(F)(F)F)[nH]c1=O)c1ccccc1O2` (stereo not shown) [Compound 325, N-(3-methyl-10H-chromeno[3,2-c]pyridin-10-yl)-2-oxo-6-(trifluoromethyl)-1,2-dihydropyridine-3-carboxamide]: the IC50 stood at 180 nM.
To `Cc1ccc2c(c1)Oc1cccnc1C2NC(=O)c1ccc(C(F)(F)F)[nH]c1=O` (stereo not shown) [Compound 326, N-(7-methyl-10H-chromeno[3,2-b]pyridin-10-yl)-2-oxo-6-(trifluoromethyl)-1,2-dihydropyridine-3-carboxamide] belongs 60 nM; to `Cc1cccc2c1C(NC(=O)c1ccc(C(F)(F)F)[nH]c1=O)c1cnccc1O2` (stereo not shown) [Compound 329, N-(9-methyl-10H-chromeno[3,2-c]pyridin-10-yl)-2-oxo-6-(trifluoromethyl)-1,2-dihydropyridine-3-carboxamide], 1680 nM; to `O=C(NC1c2ccccc2Oc2cccnc21)c1ccc(C(F)(F)F)[nH]c1=O` (stereo not shown) [Compound 331, N-(10H-chromeno[3,2-b]pyridin-10-yl)-2-oxo-6-(trifluoromethyl)-1,2-dihydropyridine-3-carboxamide], 600 nM.
To `O=C(NC1c2ccccc2Oc2ccncc21)c1ccc(C(F)(F)F)[nH]c1=O` (stereo not shown) [Compound 332, N-(10H-chromeno[3,2-c]pyridin-10-yl)-2-oxo-6-(trifluoromethyl)-1,2-dihydropyridine-3-carboxamide] belongs 1290 nM.
To `O=C(NC1c2ccccc2Oc2cnccc21)c1ccc(C(F)(F)F)[nH]c1=O` (stereo not shown) [Compound 333, N-(5H-chromeno[2,3-c]pyridin-5-yl)-2-oxo-6-(trifluoromethyl)-1,2-dihydropyridine-3-carboxamide] belongs 740 nM; to `O=C(NC1c2ccccc2Oc2ncccc21)c1ccc(C(F)(F)F)[nH]c1=O` (stereo not shown) [Compound 334, N-(5H-chromeno[2,3-b]pyridin-5-yl)-2-oxo-6-(trifluoromethyl)-1,2-dihydropyridine-3-carboxamide], 2390 nM; to `O=C(NC1CCCc2c(CCc3ccccc3)cccc21)c1ccc(C(F)(F)F)[nH]c1=O` (stereo not shown) [Compound 335, 2-oxo-N-(5-phenethyl-1,2,3,4-tetrahydronaphthalen-1-yl)-6-(trifluoromethyl)-1,2-dihydropyridine-3-carboxamide], 4470 nM.
As to `CCN1CCC(NC(=O)c2ccc(C(F)(F)F)[nH]c2=O)c2ccc(C)cc21` (stereo not shown) [Compound 336, N-(1-ethyl-7-methyl-1,2,3,4-tetrahydroquinolin-4-yl)-2-oxo-6-(trifluoromethyl)-1,2-dihydropyridine-3-carboxamide], the IC50 was 5790 nM.
To `CCCN1CCC(NC(=O)c2ccc(C(F)(F)F)[nH]c2=O)c2ccc(C)cc21` (stereo not shown) [Compound 337, N-(7-methyl-1-propyl-1,2,3,4-tetrahydroquinolin-4-yl)-2-oxo-6-(trifluoromethyl)-1,2-dihydropyridine-3-carboxamide] belongs 4190 nM.
To `Cc1ccc2c(c1)N(C)CCC2NC(=O)c1ccc(C(F)(F)F)[nH]c1=O` (stereo not shown) [Compound 338, N-(1,7-dimethyl-1,2,3,4-tetrahydroquinolin-4-yl)-2-oxo-6-(trifluoromethyl)-1,2-dihydropyridine-3-carboxamide] belongs 4260 nM; to `Cc1ccc2c(c1)C(NC(=O)c1ccc(C(F)(F)F)[nH]c1=O)CCN2` (stereo not shown) [Compound 339, N-(6-methyl-1,2,3,4-tetrahydroquinolin-4-yl)-2-oxo-6-(trifluoromethyl)-1,2-dihydropyridine-3-carboxamide], 2820 nM; to `CCCC1=Cc2ccc(C)cc2C1NC(=O)c1ccc(C(F)(F)F)[nH]c1=O` (stereo not shown) [Compound 340, N-(6-methyl-2-propyl-1H-inden-1-yl)-2-oxo-6-(trifluoromethyl)-1,2-dihydropyridine-3-carboxamide], 190 nM.
Regarding `CCCC1=C(NC(=O)c2ccc(C(F)(F)F)[nH]c2=O)c2ccc(C)cc2C1O` (stereo not shown) [Compound 342, N-(1-hydroxy-6-methyl-2-propyl-1H-inden-3-yl)-2-oxo-6-(trifluoromethyl)-1,2-dihydropyridine-3-carboxamide], the half-inhibitory concentration (IC50) is 100 nM.
To `CC1=C(NC(=O)c2ccc(C(F)(F)F)[nH]c2=O)c2ccccc2C1=O` [Compound 343, N-(2-methyl-1-oxo-1H-inden-3-yl)-2-oxo-6-(trifluoromethyl)-1,2-dihydropyridine-3-carboxamide] belongs 6260 nM; to `CCCC1=C(NC(=O)c2ccc(C(F)(F)F)[nH]c2=O)c2ccc(C)cc2C1=O` [Compound 344, N-(6-methyl-1-oxo-2-propyl-1H-inden-3-yl)-2-oxo-6-(trifluoromethyl)-1,2-dihydropyridine-3-carboxamide], 2250 nM; to `O=C(NC1CCCc2c(CO)cccc21)c1ccc(C(F)(F)F)[nH]c1=O` (stereo not shown) [Compound 345, N-(5-(hydroxymethyl)-1,2,3,4-tetrahydronaphthalen-1-yl)-2-oxo-6-(trifluoromethyl)-1,2-dihydropyridine-3-carboxamide], 8970 nM.
Take `O=C(NC1CCCc2c(CCO)cccc21)c1ccc(C(F)(F)F)[nH]c1=O` (stereo not shown) [Compound 346, N-(5-(2-hydroxyethyl)-1,2,3,4-tetrahydronaphthalen-1-yl)-2-oxo-6-(trifluoromethyl)-1,2-dihydropyridine-3-carboxamide]: the IC50 stood at 7030 nM.
Regarding `Cc1cccc2c1CCCC2NC(=O)c1ccc(C(F)(F)F)[nH]c1=O` (stereo not shown) [Compound 347], the 50% inhibitory concentration (IC50) is more than 10000 nM.
To `O=C(NC1CCCc2c(-c3ccccc3)cccc21)c1ccc(C(F)(F)F)[nH]c1=O` (stereo not shown) [Compound 348, 2-oxo-N-(5-phenyl-1,2,3,4-tetrahydronaphthalen-1-yl)-6-(trifluoromethyl)-1,2-dihydropyridine-3-carboxamide] belongs 9840 nM.
To `COc1ccc2c(c1)CCC(OC)C2NC(=O)c1ccc(C(F)(F)F)[nH]c1=O` (stereo not shown) [Compound 349, N-(2,6-dimethoxy-1,2,3,4-tetrahydronaphthalen-1-yl)-2-oxo-6-(trifluoromethyl)-1,2-dihydropyridine-3-carboxamide] belongs 1410 nM; to `COC1CCc2cc(C)ccc2C1NC(=O)c1ccc(C(F)(F)F)[nH]c1=O` (stereo not shown) [Compound 350, N-(2-methoxy-6-methyl-1,2,3,4-tetrahydronaphthalen-1-yl)-2-oxo-6-(trifluoromethyl)-1,2-dihydropyridine-3-carboxamide], 360 nM.
To `Cc1ccc2c(c1)OC(C)C2NC(=O)c1ccc(C(F)(F)F)[nH]c1=O` (stereo not shown) [Compound 356, N-(2,6-dimethyl-2,3-dihydrobenzofuran-3-yl)-2-oxo-6-(trifluoromethyl)-1,2-dihydropyridine-3-carboxamide] belongs 2160 nM; to `CCC[C@H]1Oc2cc(C)ccc2[C@H]1NC(=O)c1ccc(C(F)(F)F)[nH]c1=O` [Compound 357, N-((2R,3R)-6-methyl-2-propyl-2,3-dihydrobenzofuran-3-yl)-2-oxo-6-(trifluoromethyl)-1,2-dihydropyridine-3-carboxamide], 1180 nM.
For `CC[C@@H]1Oc2cc(C)ccc2[C@@H]1NC(=O)c1ccc(C(F)(F)F)[nH]c1=O` [Compound 359, N-((2S,3S)-2-ethyl-6-methyl-2,3-dihydrobenzofuran-3-yl)-2-oxo-6-(trifluoromethyl)-1,2-dihydropyridine-3-carboxamide], the IC50 worked out at 2150 nM.
To `Cc1ccc2c(c1)C(NC(=O)c1ccc(C(F)(F)F)[nH]c1=O)C(C)O2` (stereo not shown) [Compound 363, N-(2,5-dimethyl-2,3-dihydrobenzofuran-3-yl)-2-oxo-6-(trifluoromethyl)-1,2-dihydropyridine-3-carboxamide] belongs 2470 nM.
To `CC[C@@H]1C[C@@H](NC(=O)c2ccc(C(F)(F)F)[nH]c2=O)c2cc(C)ccc2N1` [Compound 364, N-((2R,4R)-2-ethyl-6-methyl-1,2,3,4-tetrahydroquinolin-4-yl)-2-oxo-6-(trifluoromethyl)-1,2-dihydropyridine-3-carboxamide] belongs 600 nM; to `CC[C@H]1C[C@@H](NC(=O)c2ccc(C(F)(F)F)[nH]c2=O)c2cc(C)ccc2N1` [Compound 365, N-((2S,4R)-2-ethyl-6-methyl-1,2,3,4-tetrahydroquinolin-4-yl)-2-oxo-6-(trifluoromethyl)-1,2-dihydropyridine-3-carboxamide], 160 nM.

By IC50 is commonly meant the concentration at which inhibition is half-maximal.

The record behind these values is patent publication US11957687B2 (REGENERON PHARMACEUTICALS, INC., priority 2019, dated 2024).
